# Values quoted from earlier work, collected in US20230149389A1, “METHODS OF REDUCING MORTALITY IN SUBJECTS SUFFERING FROM AN UNDERLYING DISEASE OR CONDITION BY ADMINISTRATION OF METHYLNALTREXONE” (Bausch Health Ireland Limited, priority 2020, published 2023).
# What was measured:
# [1] = cited from earlier work
# murine model of sepsis = conditions: mouse, in vivo; cited from earlier work
# [2] = test system: human dermal endothelial and pulmonary cells; conditions: at clinically relevant levels; cited from earlier work
SMILES,incidence rate for MI ([1]; placebo 0%),incidence rate for cardiovascular events ([1]; placebo 1.12%),mortality in murine model of sepsis (murine model of sepsis),angiogenic activity relative to vascular endothelial growth factor [2]
C[C@H]1CN(C[C@H](Cc2ccccc2)C(=O)NCC(=O)O)CC[C@@]1(C)c1cccc(O)c1 [alvimopan],1.30%,2.60%,–,–
CN1CC[C@]23c4c5ccc(O)c4O[C@H]2[C@@H](O)C=C[C@H]3[C@H]1C5 [morphine],–,–,increased mortality,70%
